Test results as given in US12590108B2, “Boracic acid compound” (Phaeno Therapeutics Co., Ltd, priority 2020, dated 2026).
Where two headings read alike, the source gives them in different places.

Assay: Pharmacokinetics of the compound in rats (intravenous and oral)
Format: in vivo
Settings: male, SD, plasma, rat; for Vd: read-out: Vdss
Description: The pharmacokinetic characteristics of the compound in rodents after intravenous injection and oral administration were tested by standard protocol. Specifically, the fasting SD male rats in the experiment were given the candidate compounds by intravenous injection and oral administration. Both oral preparation and intravenous preparation were prepared into 10 mg/mL or 30 mg/mL clear solutions with physiological saline and were administered by intravenous bolus or gavage for 5 minutes. Plasma samples were collected and analyzed by LC-MS/MS method, and pharmacokinetic parameters were calculated.

[1] = 100 mg/kg, intravenous bolus 100 mpk
[2] = 300 mg/kg, intravenous bolus 300 mpk

For `CCOc1ccc2c(c1C(=O)O)O[B-](O)(O)CO2` [Compound 15], the AUC(0-t) [1] was 549 µg·h/mL, the C0 [1] was 580 µg/mL and the clearance [1] was 3.02 mL/min/kg. The half-life [1] was 3.9 h, the Vd [1] was 0.583 L/kg and the AUC(0-t) (100 mg/kg, oral 100 mpk) was 278 µg·h/mL. The Cmax (100 mg/kg, oral 100 mpk) was 35.2 µg/mL, the Tmax (100 mg/kg, oral 100 mpk) was 2 h and the half-life (100 mg/kg, oral 100 mpk) was 4.99 h. For the same compound, the bioavailability (100 mg/kg, oral 100 mpk, AUC0-inf (100 mpk PO)/AUC0-inf (100 mpk IV)) was 52.2%, the AUC(0-t) [2] was 1160 µg·h/mL and the C0 [2] was 1390 µg/mL. The clearance [2] was 4.29 mL/min/kg, the half-life [2] was 4.56 h and the Vd [2] was 0.96 L/kg.
